In patent US20240325548A1, “DYNAMIC BIOACTIVE SCAFFOLDS AND THERAPEUTIC USES THEREOF AFTER CNS INJURY” (Northwestern University, priority 2021, published 2024):

How the values were obtained:
[1] = test system: human umbilical vein vascular endothelial cells (HUVECs); experiment: HUVEC branching / capillary network formation; assay type: cell-based; details: within 48 h of culture
Description: (§1) Human umbilical vein cord (HUVECs) (pooled donor, LONZA, Allendale, New Jersey) were grown to 70-80% confluence for each experiment (P2-P4) in a T-75 cell culture flask using complete media (Endo GRO-VEGF Complete Culture Media Kit, Millipore) supplemented with 1% penicillin-streptomycin. Media was changed every 3 days.
Treatments were prepared by dissolving the co-assembled PAs in media without serum. The total concentration of FGF2 PAs per treatment was 0.5 μM. FGF-2 native protein (Peprotech) was resuspended and used at 0.25 nM. For western blot experiments, HUVEC were cultured in 12 well plates at a density of approximately 150,000 cells/well for 2 days in vitro before being treated. Treatments were added for 2 h-2 days in vitro before cell lysates were harvested or cells were fixed. […]
To assess in vitro tubulogenesis and in vivo angiogenesis, an ImageJ (Fiji) script was established to automatically calculate 1) area fraction of blood vessels, 2) blood vessels length, and 3) number of branches. Images were processed, binarized and analyzed. Newly generated blood vessels in vivo were identified by quantifying the amount of CD31/BrdU double-positive cells within the region of interest. […] The quantified cross sections were chosen as the first serial cross sections within the lesion that had DiI staining.

FGFR1 = target: T1, FGFR1 (Homo sapiens, UniProt P11362); experiment: FGF-2 intracellular signaling pathway in HUVECs (WB p-FGFR1, p-ERK1/2); assay type: cell-based
T1 construct: host or cells: HUVECs (pooled donor)
T1 sequence (P11362 22-822): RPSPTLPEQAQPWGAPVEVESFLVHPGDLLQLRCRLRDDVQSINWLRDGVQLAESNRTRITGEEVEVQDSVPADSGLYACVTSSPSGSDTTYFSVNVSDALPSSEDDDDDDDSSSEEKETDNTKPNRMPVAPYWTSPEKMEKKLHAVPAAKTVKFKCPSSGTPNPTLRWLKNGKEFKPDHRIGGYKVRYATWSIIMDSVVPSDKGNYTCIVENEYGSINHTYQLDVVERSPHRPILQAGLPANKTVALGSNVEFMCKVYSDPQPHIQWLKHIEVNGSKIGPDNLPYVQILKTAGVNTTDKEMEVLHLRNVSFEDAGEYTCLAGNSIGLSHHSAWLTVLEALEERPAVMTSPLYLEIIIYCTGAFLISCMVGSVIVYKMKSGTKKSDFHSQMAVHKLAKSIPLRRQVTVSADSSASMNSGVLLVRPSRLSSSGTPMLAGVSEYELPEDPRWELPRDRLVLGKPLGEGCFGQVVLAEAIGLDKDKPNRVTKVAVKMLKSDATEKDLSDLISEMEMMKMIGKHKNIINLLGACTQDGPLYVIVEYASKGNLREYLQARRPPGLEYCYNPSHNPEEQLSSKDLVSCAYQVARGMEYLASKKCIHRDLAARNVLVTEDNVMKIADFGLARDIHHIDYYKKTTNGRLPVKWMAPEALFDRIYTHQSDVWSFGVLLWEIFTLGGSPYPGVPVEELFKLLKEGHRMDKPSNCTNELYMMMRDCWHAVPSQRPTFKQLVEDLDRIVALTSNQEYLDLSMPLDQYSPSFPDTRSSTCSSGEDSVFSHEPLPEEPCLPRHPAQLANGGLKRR
Description: as §1
Treatments were prepared by dissolving the co-assembled PAs in media without serum. The total concentration of FGF2 PAs per treatment was 0.5 μM. FGF-2 native protein (Peprotech) was resuspended and used at 0.25 nM. For western blot experiments, HUVEC were cultured in 12 well plates at a density of approximately 150,000 cells/well for 2 days in vitro before being treated. Treatments were added for 2 h-2 days in vitro before cell lysates were harvested or cells were fixed. For PA coatings, PAs were painted on the coverslips (German Glass, Chemglass Life Science) or tissue culture plates as described in the Co-assembled PA preparation section. Three replicates per condition and three independent experiments were carried out for all conditions investigated.
(§2) RIPA buffer (Thermofisher) with a cocktail of Halt Protease and Phosphatase Inhibitors (Thermofisher) was used to extract protein from in vitro and in vivo samples. For in vivo studies, spinal cord tissue was then sonicated using a horn sonicator (Branson) to break up the tissue. […]

hNPCs = experiment: hNPC attachment, proliferation and phenotype on co-assembled PA coatings (EdU, SOX-2, PAX6); assay type: cell-based, human
Text: Neural progenitor cells (NPCs) were differentiated from human embryonic stem cells HUES 64 (Harvard University) (see FIG. 2C). In short, 70% confluent stem cell cultures grown in Matrigel (Thermo Fisher) coated plates with mTESR medium (STEMCELL Technologies), were switched to N2B27 medium (50% DMEM: F12, 50% Neurobasal, supplemented with NEAA, Glutamax, N2 and B27; Gibco) containing dual SMAD inhibitors (SB431542, DNSK International and LDN-193189, Tocris) for 12 days to induce the generation of neural progenitors. Neuralization was enhanced by supplementing medium with laminin from day 5 to 12. Next, neural rosettes were dissociated with neural rosette selection reagent (STEMCELL Technologies) to obtain NPCs, which are expanded in N2B27 (Gibco) medium supplemented with bFGF (Millipore). For experimentation in the different PA platforms, NPCs were dissociated with Accutase (Innovative Cell technology), and cultured in the distinct platforms with DMEM: F12+N2+B27 medium with hyclone penicillin-streptomycin (GE Healthcare) and ascorbic acid (0.2 μg/mL; Sigma-Aldrich).
(§3) For IKVAV PA treatments, hNPCs were cultured on ornithine coatings (German Glass, Chemglass Life Science) in 6 well and 24 well plates at a density of 500,000 cells/well and 80,000 cells/well respectively. hNPCs were treated with […] of IKVAV PAs ([PA]=6 mM, [KCl]=3 mM, [NaCl]=150 mM) or recombinant laminin protein (10 mg/mL) in solution. IKVAV PA2 and IKVAV PA5 were also mixed with 5 mM CaCl2) at a ratio PA:CaCl2) 6:1 to treat hNPCs. For 2D experiments, hNPCs were cultured on the different IKVAV PAs or laminin coatings in 6 well and 24 well plates at densities mentioned above. For co-assembled experiments, hNPCs were cultured on the different co-assembled PA coatings in 6 well and 24 well plates at a density of 400,000 cells/well and 50,000 cells/well respectively.
(§4) hNPCs were fed 4 times a week with DMEM: F12+N2^+B27 medium with hyclone penicillin-streptomycin and ascorbic acid. After 24 h, 72 h 1- or 2-weeks in vitro, cell lysates were harvested or fixed for WB or ICC, respectively. Three replicates per condition and at least three independent experiments were carried out for all conditions investigated.
For the hNPCs proliferation assay, 2 μM of the thymidine analog 5-ethynyl-2′-deoxyuridine (EdU, Thermo Fisher) was incorporated into the culture medium for 24 h. Cells were fixed at the indicated time points in 4% paraformaldehyde (PFA) for 15 min at RT. After fixation, samples were washed in PBS twice and then stained with Click-iT™ EdU Cell Proliferation Kit containing 11 mM CuSO4 (from 50 mM stock) and 1 μg/mL of Alexa Fluor-555 azide (from 0.5 mg/mL, Thermo Fisher) for 30 minutes at RT in the dark. The staining cocktail was then removed, and cells were washed with PBS. Then, hNPCs were counterstained with anti-rabbit SOX-2 antibody following the immunofluorescence protocol described below and 4′, 6-diamidino-2-phenylindole (DAPI, Thermo Fisher) at 5 μg/mL in PBS for 20 min at RT. The cells were then washed with PBS and mounted with Immu-Mount (Fisher Scientific) for imaging.
For immunofluorescence, fixed primary cultures or free-floating tissue sections (40 m Thick) were incubated in blocking buffer containing 0.02% Triton-X (Sigma-Aldrich), 1% NHS (Gibco) and PBS 1× (Gibco). Samples were incubated with primary antibodies over night at 4° C. Alexa-488, Alexa-555 and/or Alexa-647 (1:500, Thermofisher) were used as secondary antibodies. DAPI (1:500, Thermofisher) was used to stain nuclei. […]

FGFR1 and ITGB1 = target: T2, FGFR1 and ITGB1 (Homo sapiens, UniProt P11362); experiment: p-FGFR1 and active ITGB1 in hNPCs on co-assembled PA coatings (WB); assay type: cell-based
T2 construct: endogenous in cells; host or cells: hNPCs differentiated from human embryonic stem cells HUES 64, seeded on co-assembled PA coatings
T2 sequence (P11362 22-822): as above
Description: as §3, §4, §2

With “native FGF-2: FGF-2 native protein (Peprotech), positive control” the “branching and vessel-like capillary network formation” value [1] was “extensive branching and formation of vessel-like capillary networks”, the “levels of p-FGFR1 and downstream p-ERK1/2” value (FGFR1) was “high levels” and the “percentage of proliferating EdU+ and SOX2+ cells” value (hNPCs) was “increased”. The P-FGFR-1 expression (FGFR1 and ITGB1) was “highly expressed”.
